From patent publication US12486280B2, “CDK inhibitors and uses thereof” (California Institute of Technology, priority 2018, dated 2025)
In brackets after ≈: the same amount, converted by molar mass. Read-outs that look alike come from different tables or passages of the source.

Assays:
[1] = test system: CYP isozymes (IC50s averaged over the isozymes); assay: CYP Enzymatic Inhibition Assay in human liver microsomes
Protocol: Inhibition of various CYP isozymes was measured for each compound using a CYP enzyme inhibition assay in human liver microsomes (HLM). Compounds and standard inhibitors were prepared at a 100× working solutions. Substrates or PBS were added to the corresponding wells followed by addition of compounds, solvent or positive control working solution to corresponding wells. HLMs were added to the pre-warmed (37° C.) plate and mixed with NADPH cofactor for 10 minutes at 37° C. The reaction was terminated by adding 400 μL cold stop solution (200 ng/mL Tolbutamide and 200 ng/mL Labetalol in ACN). The plate was centrifuged at 4,000 rpm for 20 minutes, and supernatant was transferred to 100 μL HPLC water followed by LC/MS/MS analysis.

[2] = test system: drug-sensitive cell lines of Table 2 (EFM-19, MDA-MB-453, T-47D, ZR-75-1, NCI-H441, OVTOKO, NCI-H1838); assay: Cell Line Growth Retardation Assay, sensitive cohort; format: cell-based, human; conditions: for IC50: Homo sapiens, geometric mean over sensitive cohort, 6 days growth, read-out: AvgSensIC50; for Ther Window: average IC50 drug-resistant group divided by average IC50 drug-sensitive group
Outline: (§1)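 Growth over 6 days of compound exposure (0.0032–10 μM, five-fold steps) was scored by imaging cell counts at days 0 and 6, comparing population doublings with vehicle. Per-line IC50s from dose-response fits were averaged geometrically per cohort; therapeutic window is resistant/sensitive ratio.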

CDK6 = CDK6 (Homo sapiens (Human), UniProt Q00534); assay: Cdk4 and 6 Enzymatic Inhibition Assay (radiometric 33PanQinase, Ki determination); format: biochemical
Sequence of CDK6 (Q00534 whole entry): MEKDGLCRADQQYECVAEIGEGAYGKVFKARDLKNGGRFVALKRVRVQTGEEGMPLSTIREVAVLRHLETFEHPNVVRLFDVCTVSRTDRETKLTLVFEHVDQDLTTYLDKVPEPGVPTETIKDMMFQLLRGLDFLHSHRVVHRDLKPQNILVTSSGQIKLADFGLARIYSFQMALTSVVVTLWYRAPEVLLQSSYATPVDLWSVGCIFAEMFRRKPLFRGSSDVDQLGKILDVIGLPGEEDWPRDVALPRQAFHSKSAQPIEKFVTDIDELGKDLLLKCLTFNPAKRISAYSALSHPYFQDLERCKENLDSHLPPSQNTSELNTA
Sequence of CDK6 (P24385 whole entry partner): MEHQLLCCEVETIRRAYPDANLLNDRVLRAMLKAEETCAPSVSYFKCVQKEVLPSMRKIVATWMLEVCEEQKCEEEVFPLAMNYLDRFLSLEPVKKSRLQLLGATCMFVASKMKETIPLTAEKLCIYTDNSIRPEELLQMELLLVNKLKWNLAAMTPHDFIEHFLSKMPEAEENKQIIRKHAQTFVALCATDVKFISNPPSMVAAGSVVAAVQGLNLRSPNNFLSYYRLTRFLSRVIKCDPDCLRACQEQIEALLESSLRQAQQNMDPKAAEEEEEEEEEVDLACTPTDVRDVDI
Outline: (§2)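 Compounds tested at ten concentrations spanning 2×10^−6 to 6×10^−11 M (final DMSO 1%). Kinase and substrate reacted with [γ-33P]-ATP in HEPES-NaOH pH 7.5 containing Mg2+/Mn2+, orthovanadate and DTT for 60 min at 30° C; incorporated 33Pi measured by microplate scintillation counting.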

CDK4 = CDK4 (Homo sapiens (Human), UniProt P11802); assay: as above; format: biochemical
Sequence of CDK4 (P11802 whole entry): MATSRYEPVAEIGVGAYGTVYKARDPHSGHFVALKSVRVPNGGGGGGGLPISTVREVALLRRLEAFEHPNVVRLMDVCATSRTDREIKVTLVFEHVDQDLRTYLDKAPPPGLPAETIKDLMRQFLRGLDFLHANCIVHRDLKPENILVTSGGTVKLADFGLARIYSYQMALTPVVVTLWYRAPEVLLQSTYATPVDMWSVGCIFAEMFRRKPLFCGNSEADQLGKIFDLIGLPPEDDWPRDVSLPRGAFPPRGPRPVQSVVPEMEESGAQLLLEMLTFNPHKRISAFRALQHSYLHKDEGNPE
Sequence of CDK4 (P24385 whole entry partner): as the sequence (P24385 whole entry partner) above
Outline: as §2

[3] = Compound Solubility Assay (kinetic solubility); format: physicochemical; conditions: kinetic from dmso stock
Protocol: The relative kinetic solubility of each compound was determined at both low (1.2) and neutral (7.4) pH. Compounds were prepared at 10 mM stocks. […] Compounds were allowed to shake at room temperature for 24 hours in 50 mM phosphate buffer pH 7.4, or in SGF buffer pH 1.2 at 37° C. for 24 hours.

[4] = Caco-2 Assay (Papp A to B); conditions: human, Caco-2, pH 7.4
Protocol: The degree of bi-directional human intestinal permeability for compounds was estimated using a Caco-2 cell permeability assay. Caco-2 cells were seeded onto polyethylene membranes in 96-well plates. The growth medium was refreshed every 4 to 5 days until cells formed a confluent cell monolayer. HBSS with 10 mM HEPES at pH 7.4 was used as the transport buffer. Compounds were tested at 2 μM bi-directionally in duplicate. Digoxin, nadolol and metoprolol were included as standards. Digoxin was tested at 10 μM bi-directionally in duplicate, while nadolol and metoprolol were tested at 2 μM in the A to B direction in duplicate. The final DMSO concentration was adjusted to less than 1% for all experiments. The plate was incubated for 2 hours in a CO2 incubator at 37° C., with 5% CO2 at saturated humidity. After incubation, all wells were mixed with acetonitrile containing an internal standard, and the plate was centrifuged at 4,000 rpm for 10 minutes. 100 μL supernatant was collected from each well and diluted with 100 μL distilled water for LC/MS/MS analysis. Concentrations of test and control compounds in starting solution, donor solution, and receiver solution were quantified by LC/MS/MS, using peak area ratio of analyte/internal standard. The apparent permeability coefficient Papp (cm/s) was calculated using the equation: Papp=(dCr/dt)×Vr/(A×C0) Where dCr/dt is the cumulative concentration of compound in the receiver chamber as a function of time (μM/s); Vr is the solution volume in the receiver chamber (0.075 mL on the apical side, 0.25 mL on the basolateral side); A is the surface area for the transport, which is 0.0804 cm^2 for the area of the monolayer; C0 is the initial concentration in the donor chamber (μM).

[5] = test system: drug-resistant cell lines of Table 2 (NCI-H1437, OV207, HCC1806, NCI-H2172); assay: Cell Line Growth Retardation Assay, resistant cohort; format: cell-based, human; conditions: Homo sapiens, […], geometric mean over resistant cohort; 6 days growth; read-out: AvgResIC50
Outline: as §1

[6] = Measurement of Compound Metabolic Stability in hepatocytes
hERG potassium channels = hERG potassium channels (Homo sapiens (Human), UniProt Q12809); assay: hERG Inhibition Assay (QPatch automated patch clamp, CHO cells); conditions: percent of control current
Sequence of hERG potassium channels (Q12809 whole entry): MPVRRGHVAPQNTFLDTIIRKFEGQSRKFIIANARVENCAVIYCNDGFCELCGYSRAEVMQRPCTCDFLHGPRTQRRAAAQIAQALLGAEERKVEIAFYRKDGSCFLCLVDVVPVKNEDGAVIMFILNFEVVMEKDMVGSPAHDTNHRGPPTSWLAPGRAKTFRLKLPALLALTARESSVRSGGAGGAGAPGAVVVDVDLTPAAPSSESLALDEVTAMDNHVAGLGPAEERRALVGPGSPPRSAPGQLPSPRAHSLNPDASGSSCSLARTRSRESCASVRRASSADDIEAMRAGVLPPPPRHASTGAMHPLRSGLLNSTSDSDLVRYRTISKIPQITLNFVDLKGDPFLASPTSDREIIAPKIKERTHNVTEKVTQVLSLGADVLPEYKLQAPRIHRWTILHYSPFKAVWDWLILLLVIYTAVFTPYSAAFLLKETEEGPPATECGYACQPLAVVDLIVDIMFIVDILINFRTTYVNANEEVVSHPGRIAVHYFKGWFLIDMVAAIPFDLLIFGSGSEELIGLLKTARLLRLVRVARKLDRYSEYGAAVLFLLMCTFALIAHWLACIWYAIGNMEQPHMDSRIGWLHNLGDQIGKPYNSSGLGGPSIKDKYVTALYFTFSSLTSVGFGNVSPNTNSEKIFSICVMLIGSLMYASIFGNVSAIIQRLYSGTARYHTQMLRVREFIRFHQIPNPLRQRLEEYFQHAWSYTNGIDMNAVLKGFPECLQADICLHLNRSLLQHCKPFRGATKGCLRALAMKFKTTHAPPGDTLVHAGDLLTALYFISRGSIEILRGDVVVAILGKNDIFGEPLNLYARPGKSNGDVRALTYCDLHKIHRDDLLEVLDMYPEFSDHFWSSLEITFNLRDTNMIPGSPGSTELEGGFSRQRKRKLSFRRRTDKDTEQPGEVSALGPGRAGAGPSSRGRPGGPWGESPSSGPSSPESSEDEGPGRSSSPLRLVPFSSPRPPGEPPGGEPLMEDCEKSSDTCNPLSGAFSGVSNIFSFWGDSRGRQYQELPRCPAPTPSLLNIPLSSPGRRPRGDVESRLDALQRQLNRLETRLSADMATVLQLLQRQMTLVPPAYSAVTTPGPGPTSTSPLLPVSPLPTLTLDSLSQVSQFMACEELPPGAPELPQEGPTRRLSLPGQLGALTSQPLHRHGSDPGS
Protocol: Effects of compounds on hERG potassium channel conductance was assessed using the automated patch clamp method QPatch^HTX. Compounds were prepared at 10 mM stocks. CHO cells stably expressing hERG potassium channels were used for this assay. Cells were cultured in a humidified and air-controlled 5% CO2) incubator at 37° C. Compound stocks and the positive control Amitriptyline were dissolved in 100% DMSO to make various solution concentrations. These solutions were further diluted into extracellular solution to achieve final concentrations for testing. The final DMSO concentration in extracellular solution was 0.30%. The hERG QPatch^HTX assay was conducted at room temperature.
The following voltage command protocol was used: • From the holding potential of −80 mV, the voltage was first stepped to −50 mV for 80 ms for leak subtraction, and then stepped to +20 mV for 4,800 ms to open hERG channels. • After which, the voltage was stepped back down to −50 mV for 5,000 ms, causing a “rebound” or tail current, which was measured and collected for data analysis. • Finally, the voltage was stepped back to the holding potential of −80 mV for 3,100 ms.
For each experiment, three additions of 5 μL of the vehicle were applied, followed by 30 runs of the voltage command protocol for a baseline period. Then, the ascending doses of each compound were added with three repetitions (5 μL of compound each time).

[7] = 50 mM phosphate buffer, pH 7.4, aqueous buffer, read-out: KS7
[8] = simulated gastric fluid, kinetic solubility, SGF buffer pH 1.2, 37° C., 24 hours, read-out: KS1

## Cc1nc2c(F)cc(-c3nc(Nc4ccc(CN5CCO[C@](C)(C[C@@H](C)N(C)C)C5)cn4)ncc3F)cc2n1C(C)C [Compound A26]
[1]
  IC50 at 10 min: 51500 nM
[2]
  IC50: 130 nM
  Ther Window: 6.10
CDK6
  Ki: 8.63 nM
CDK4
  Ki: 1.73 nM
[3]; [7]
  solubility kinetic at 24 h: 140 µM (≈ 81.2 µg/mL)
[3]; [8]
  solubility kinetic at 24 h: 200 µM (≈ 116 µg/mL)
[4]
  Papp A→B at 2 h, 2 μM: 0.03 ×10⁻⁶ cm/s
[5]
  IC50: 770 nM
[6]
  half-life at 1 μM: 89.4 min
hERG potassium channels
  hERG: 39.08%

## Cc1nc2c(F)cc(-c3nc(Nc4ccc(CN5CC6(C5)CS(=O)(=O)C6)cn4)ncc3F)cc2n1C(C)C [Compound A62, 6-((6-((5-fluoro-4-(4-fluoro-1-isopropyl-2-methyl-1H-benzo[d]imidazol-6-yl)pyrimidin-2-yl)amino)pyridin-3-yl)methyl)-2-thia-6-azaspiro[3.3]heptane 2,2-dioxide]
[1]
  IC50 at 10 min: 33900 nM
[2]
  IC50: 90 nM
  Ther Window: 8.11
CDK6
  Ki: 3.8 nM
CDK4
  Ki: 0.59 nM
[3]; [7]
  solubility kinetic at 24 h: 1 µM (≈ 0.54 µg/mL)
[3]; [8]
  solubility kinetic at 24 h: 190 µM (≈ 103 µg/mL)
[4]
  Papp A→B at 2 h, 2 μM: 0.15 ×10⁻⁶ cm/s
[5]
  IC50: 730 nM
[6]
  half-life at 1 μM: 33.9 min
hERG potassium channels
  hERG: 40.8%

## Cc1nc2c(F)cc(-c3nc(Nc4ccc(CN5CCO[C@@](C)(CCO)C5)cn4)ncc3F)cc2n1C(C)C [Compound A50, (S)-2-(4-((6-((5-fluoro-4-(4-fluoro-1-isopropyl-2-methyl-1H-benzo[d]imidazol-6-yl)pyrimidin-2-yl)amino)pyridin-3-yl)methyl)-2-methylmorpholin-2-yl)ethan-1-ol]
[1]
  IC50 at 10 min: 35000 nM
[2]
  IC50: 70 nM
  Ther Window: 9.87
CDK6
  Ki: 5.32 nM
CDK4
  Ki: 0.78 nM
[3]; [7]
  solubility kinetic at 24 h: 1.13 µM (≈ 0.608 µg/mL)
[3]; [8]
  solubility kinetic at 24 h: 200 µM (≈ 108 µg/mL)
[4]
  Papp A→B at 2 h, 2 μM: 3.25 ×10⁻⁶ cm/s
[5]
  IC50: 730 nM
[6]
  half-life at 1 μM: 17.5 min
hERG potassium channels
  hERG: 18.96%

## CCC[C@@]1(C)CN(Cc2ccc(Nc3ncc(F)c(-c4cc(F)c5nc(C)n(C(C)C)c5c4)n3)nc2)CCN1 [Compound A47, (S)-5-fluoro-4-(4-fluoro-1-isopropyl-2-methyl-1H-benzo[d]imidazol-6-yl)-N-(5-((3-methyl-3-propylpiperazin-1-yl)methyl)pyridin-2-yl)pyrimidin-2-amine]
[1]
  IC50 at 10 min: 30000 nM
[2]
  IC50: 90 nM
  Ther Window: 4.96
CDK6
  Ki: 5.17 nM
CDK4
  Ki: 1.01 nM
[3]; [7]
  solubility kinetic at 24 h: 1 µM (≈ 0.535 µg/mL)
[3]; [8]
  solubility kinetic at 24 h: 193 µM (≈ 103 µg/mL)
[4]
  Papp A→B at 2 h, 2 μM: 0.04 ×10⁻⁶ cm/s
[5]
  IC50: 460 nM
[6]
  half-life at 1 μM: 126 min
hERG potassium channels
  hERG: 21.76%

## CNC(=O)C[C@]1(C)CN(Cc2ccc(Nc3ncc(F)c(-c4cc(F)c5nc(C)n(C(C)C)c5c4)n3)nc2)CCO1 [Compound A59, (R)-2-(4-((6-((5-fluoro-4-(4-fluoro-1-isopropyl-2-methyl-1H-benzo[d]imidazol-6-yl)pyrimidin-2-yl)amino)pyridin-3-yl)methyl)-2-methylmorpholin-2-yl)-A-methylacetamide]
[1]
  IC50 at 10 min: 21200 nM
[2]
  IC50: 210 nM
  Ther Window: 4.76
CDK6
  Ki: 10.1 nM
CDK4
  Ki: 1.46 nM
[3]; [8]
  solubility kinetic at 24 h: 199 µM (≈ 112 µg/mL)
[4]
  Papp A→B at 2 h, 2 μM: 0.7 ×10⁻⁶ cm/s
[5]
  IC50: 1000 nM
[6]
  half-life at 1 μM: 3.51 min
hERG potassium channels
  hERG: 25.3%

## Cc1nc2c(F)cc(-c3nc(Nc4ccc(CN5CCO[C@](C)(C[C@H](C)N(C)C)C5)cn4)ncc3F)cc2n1C(C)C [Compound A27]
[1]
  IC50 at 10 min: 25800 nM
[2]
  IC50: 80 nM
  Ther Window: 11.50
CDK6
  Ki: 6.57 nM
CDK4
  Ki: 1.21 nM
[3]; [7]
  solubility kinetic at 24 h: 107 µM (≈ 61.9 µg/mL)
[3]; [8]
  solubility kinetic at 24 h: 200 µM (≈ 116 µg/mL)
[4]
  Papp A→B at 2 h, 2 μM: 0.06 ×10⁻⁶ cm/s
[5]
  IC50: 900 nM
[6]
  half-life at 1 μM: 71.2 min
hERG potassium channels
  hERG: 24.78%

## Cc1nc2c(F)cc(-c3nc(Nc4ccc(CN5CCO[C@](C)(CCN6CCOCC6)C5)cn4)ncc3F)cc2n1C(C)C [Compound A19, (R)-5-fluoro-4-(4-fluoro-1-isopropyl-2-methyl-1H-benzo[d]imidazol-6-yl)-N-(5-((2-methyl-2-(2-morpholinoethyl)morpholino)methyl)pyridin-2-yl)pyrimidin-2-amine]
[1]
  IC50 at 10 min: 29000 nM
[2]
  IC50: 190 nM
  Ther Window: 5.12
CDK6
  Ki: 7.07 nM
CDK4
  Ki: 1.37 nM
[3]; [7]
  solubility kinetic at 24 h: 139 µM (≈ 84.2 µg/mL)
[3]; [8]
  solubility kinetic at 24 h: 200 µM (≈ 121 µg/mL)
[4]
  Papp A→B at 2 h, 2 μM: 0.91 ×10⁻⁶ cm/s
[5]
  IC50: 970 nM
[6]
  half-life at 1 μM: 16.8 min
hERG potassium channels
  hERG: 18.14%

## Cc1nc2c(F)cc(-c3nc(Nc4ccc(CN5CCN(C)C(C)(C)C5)cn4)ncc3F)cc2n1C(C)C [Compound A43, 5-fluoro-4-(4-fluoro-1-isopropyl-2-methyl-1H-benzo[d]imidazol-6-yl)-N-(5-((3,3,4-trimethylpiperazin-1-yl)methyl)pyridin-2-yl)pyrimidin-2-amine]
[1]
  IC50 at 10 min: 90600 nM
[2]
  IC50: 70 nM
  Ther Window: 15.03
CDK6
  Ki: 4.13 nM
CDK4
  Ki: 0.77 nM
[3]; [7]
  solubility kinetic at 24 h: 8.37 µM (≈ 4.36 µg/mL)
[3]; [8]
  solubility kinetic at 24 h: 200 µM (≈ 104 µg/mL)
[4]
  Papp A→B at 2 h, 2 μM: 0.27 ×10⁻⁶ cm/s
[5]
  IC50: 1000 nM
[6]
  half-life at 1 μM: 24.2 min
hERG potassium channels
  hERG: 12.12%

## Cc1nc2c(F)cc(-c3nc(Nc4ccc(CN5CCO[C@]6(CCN(S(C)(=O)=O)C6)C5)cn4)ncc3F)cc2n1C(C)C [Compound A32]
[1]
  IC50 at 10 min: 31500 nM
[2]
  IC50: 160 nM
  Ther Window: 6.24
CDK6
  Ki: 17.4 nM
CDK4
  Ki: 3.07 nM
[3]; [7]
  solubility kinetic at 24 h: 1.6 µM (≈ 0.98 µg/mL)
[3]; [8]
  solubility kinetic at 24 h: 200 µM (≈ 123 µg/mL)
[4]
  Papp A→B at 2 h, 2 μM: 1.08 ×10⁻⁶ cm/s
[5]
  IC50: 1000 nM
[6]
  half-life at 1 μM: 4.24 min
hERG potassium channels
  hERG: 14.35%

## Cc1nc2c(F)cc(-c3nc(Nc4ccc(CN5CCO[C@@](C)(C[C@@H](C)N(C)C)C5)cn4)ncc3F)cc2n1C(C)C [Compound A28, N-(5-(((S)-2-((R)-2-(dimethylamino)propyl)-2-methylmorpholino)methyl)pyridin-2-yl)-5-fluoro-4-(4-fluoro-1-isopropyl-2-methyl-1H-benzo[d]imidazol-6-yl)pyrimidin-2-amine methanesulfonate]
[1]
  IC50 at 10 min: 94000 nM
[2]
  IC50: 70 nM
  Ther Window: 5.23
CDK6
  Ki: 2.6 nM
CDK4
  Ki: 0.46 nM
[3]; [7]
  solubility kinetic at 24 h: 15.8 µM
[3]; [8]
  solubility kinetic at 24 h: 200 µM
[4]
  Papp A→B at 2 h, 2 μM: 0.09 ×10⁻⁶ cm/s
[5]
  IC50: 390 nM
[6]
  half-life at 1 μM: 55.2 min
hERG potassium channels
  hERG: 6.78%

## Cc1nc2c(F)cc(-c3nc(Nc4ccc(CN5CCNC(C)(C)C5)cn4)ncc3F)cc2n1C(C)C [Compound A44, N-(5-((3,3-dimethylpiperazin-1-yl)methyl)pyridin-2-yl)-5-fluoro-4-(4-fluoro-1-isopropyl-2-methyl-1H-benzo[d]imidazol-6-yl)pyrimidin-2-amine]
[1]
  IC50 at 10 min: 64200 nM
[2]
  IC50: 90 nM
  Ther Window: 10.25
CDK6
  Ki: 3.04 nM
CDK4
  Ki: 0.7 nM
[3]; [7]
  solubility kinetic at 24 h: 6.3 µM (≈ 3.19 µg/mL)
[3]; [8]
  solubility kinetic at 24 h: 200 µM (≈ 101 µg/mL)
[4]
  Papp A→B at 2 h, 2 μM: 0.01 ×10⁻⁶ cm/s
[5]
  IC50: 960 nM
[6]
  half-life at 1 μM: 81.2 min
hERG potassium channels
  hERG: 10.84%
